Measured values from patent publication US20250084074A1, “SUBSTITUTED HETEROCYCLES AS HSET INHIBITORS” (MERCK PATENT GMBH, priority 2022, published 2025).
Structures can show the parent of a compound that is named as a salt.

Target: HSET full length protein (Homo sapiens (Human), UniProt Q9BW19)
Experiment: HSET ADP-Glo Assay S - 3 μM ATP
Assay type: biochemical
Settings: 5 nM HSET, 70 μg/mL microtubule, 80 min at rt, read-out: COMBINED HSET ADP GLO IC50
In short: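 ADP-Glo luminescence read-out: ATPase reaction at 3 μM ATP, 80 min at room temperature, after a 10 min compound preincubation. Enzyme was full-length human HSET at 5 nM, stimulated by 70 μg/mL paclitaxel-stabilised bovine microtubules in HEPES pH 6.8 buffer with MgCl2, EGTA, Triton X-100 and DTT.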

HSET full length protein, sequence (Q9BW19 whole entry): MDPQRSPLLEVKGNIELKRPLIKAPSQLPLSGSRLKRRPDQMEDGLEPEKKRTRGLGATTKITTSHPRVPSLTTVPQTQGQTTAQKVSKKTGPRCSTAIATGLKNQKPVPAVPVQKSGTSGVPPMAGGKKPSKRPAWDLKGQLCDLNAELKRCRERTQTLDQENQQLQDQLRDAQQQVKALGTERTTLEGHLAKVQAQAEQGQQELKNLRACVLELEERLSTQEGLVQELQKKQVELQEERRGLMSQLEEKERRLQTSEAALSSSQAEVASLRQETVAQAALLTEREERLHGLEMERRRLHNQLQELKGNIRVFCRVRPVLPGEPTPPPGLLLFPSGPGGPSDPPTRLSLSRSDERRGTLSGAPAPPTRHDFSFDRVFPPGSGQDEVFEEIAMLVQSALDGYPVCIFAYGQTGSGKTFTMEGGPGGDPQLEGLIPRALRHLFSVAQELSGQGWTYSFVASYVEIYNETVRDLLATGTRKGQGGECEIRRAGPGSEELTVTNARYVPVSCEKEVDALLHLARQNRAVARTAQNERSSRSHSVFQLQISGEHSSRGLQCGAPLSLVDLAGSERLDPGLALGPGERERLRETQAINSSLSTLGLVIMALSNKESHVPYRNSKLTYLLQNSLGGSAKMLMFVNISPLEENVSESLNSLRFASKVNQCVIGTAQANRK

| IC50 | SMILES |
| --- | --- |
| 167 nM | Cc1nc(-c2cccc(C(=O)N[C@H](CC#N)CC(=O)Nc3nc(C)c(C(=O)OC(C)C)s3)c2)no1 [Example 196, Propan-2-yl 2-[(3R)-4-cyano-3-{[3-(5-methyl-1,2,4-oxadiazol-3-yl)phenyl]form-amido}butanamido]-4-methyl-1,3-thiazole-5-carboxylate] |
| 135 nM | COC(=O)c1sc(NC(=O)C[C@H](CC#N)NC(=O)c2cccc(-c3noc(C)n3)c2)nc1C [Example 197, Methyl 2-[(3S)-4-cyano-3-{[3-(5-methyl-1,2,4-oxadiazol-3-yl)phenyl]formamido}, butanamido]-4-methyl-1,3-thiazole-5-carboxylate] |
| 181 nM | COC(=O)c1sc(NC(=O)C[C@@H](CC#N)NC(=O)c2cccc(-c3noc(C)n3)c2)nc1C [Example 198] |
| 10 nM | Cc1nc(-c2cccc(C(=O)N[C@@H](CC#N)CC(=O)N(C)c3nc(C)c(C(=O)OC(C)C)s3)c2)no1 [Example 199, Propan-2-yl 2-[(3S)-4-cyano-N-methyl-3-{[3-(5-methyl-1,2,4-oxadiazol-3-yl)phenyl]-formamido}butanamido]-4-methyl-1,3-thiazole-5-carboxylate] |
| 295 nM | Cc1nc(-c2cccc(C(=O)N[C@H](CC#N)CC(=O)N(C)c3nc(C)c(C(=O)OC(C)C)s3)c2)no1 [Example 200, Propan-2-yl 2-[(3R)-4-cyano-N-methyl-3-{[3-(5-methyl-1,2,4-oxadiazol-3-yl)phenyl]-formamido}butanamido]-4-methyl-1,3-thiazole-5-carboxylate] |
| 410 nM | Cc1nc(NC(=O)C[C@H](CC#N)NC(=O)c2cccc(-c3cnn(C)c3)c2)sc1C(=O)OC(C)(C)C [Example 201] |
| 8850 nM | Cc1nc(NC(=O)C[C@@H](CC#N)NC(=O)c2cccc(-c3cnn(C)c3)c2)sc1C(=O)OC(C)(C)C [Example 202] |
| 1100 nM | Cc1nc(NC(=O)C[C@H](CC#N)NC(=O)c2cccc(-c3cnn(C)c3)c2)sc1C(=O)OC(C)C [Example 203] |
| 5700 nM | Cc1nc(NC(=O)C[C@@H](CC#N)NC(=O)c2cccc(-c3cnn(C)c3)c2)sc1C(=O)OC(C)C [Example 204] |
| 4400 nM | Cc1nc(N(C)C(=O)C[C@H](CC#N)NC(=O)c2cccc(-c3cnn(C)c3)c2)sc1C(=O)OC(C)C [Example 205] |
| 9300 nM | Cc1nc(N(C)C(=O)C[C@@H](CC#N)NC(=O)c2cccc(-c3cnn(C)c3)c2)sc1C(=O)OC(C)C [Example 206] |
| 590 nM | Cc1nc(NC(=O)C[C@H](CC#N)NC(=O)c2cccc(C#N)c2)sc1C(=O)OC(C)C [Example 207, Propan-2-yl 2-[(3S)-4-cyano-3-[(3-cyanophenyl)formamido]butan-amido]-4-methyl-1,3-thiazole-5-carboxylate] |
| 79 nM | Cc1nc(NC(=O)C[C@H](CC#N)Nc2nccc3ccc(C#N)cc23)sc1C(=O)OC(C)C [Example 208, Propan-2-yl 2-[(3S)-4-cyano-3-[(7-cyanoisoquinolin-1-yl)amino]butan-amido]-4-methyl-1,3-thiazole-5-carboxylate] |
| 4000 nM | Cc1nc(NC(=O)C[C@@H](CC#N)Nc2nccc3ccc(C#N)cc23)sc1C(=O)OC(C)C [Example 209, Propan-2-yl 2-[(3R)-4-cyano-3-[(7-cyanoisoquinolin-1-yl)amino]butan-amido]-4-methyl-1,3-thiazole-5-carboxylate] |
| 700 nM | Cc1nc(NC(=O)C[C@H](CC#N)Nc2nccc3ccc(-c4cnn(C)c4)cc23)sc1C(=O)OC(C)C [Example 210, Propan-2-yl 2-[(3S)-4-cyano-3-{[7-(1-methyl-1 H-pyrazol-4-yl)isoquinolin-1-yl]amino}butanamido]-4-methyl-1,3-thiazole-5-carboxylate] |
| 1300 nM | Cc1nc(NC(=O)C[C@H](CC#N)NC(=O)c2cccc(-c3cnn(C)c3)n2)sc1C(=O)OC(C)(C)C [Example 211, tert-Butyl 2-[(3S)-4-cyano-3-{[6-(1-methyl-1 H-pyrazol-4-yl)pyridin-2-yl]formamido}butanamido]-4-methyl-1,3-thiazole-5-carboxylate] |
| 3350 nM | Cc1nc(NC(=O)C[C@@H](CC#N)NC(=O)c2cccc(-c3cnn(C)c3)n2)sc1C(=O)OC(C)(C)C [Example 212, tert-Butyl 2-[(3R)-4-cyano-3-{[6-(1-methyl-1 H-pyrazol-4-yl)pyridin-2-yl]formamido}butanamido]-4-methyl-1,3-thiazole-5-carboxylate] |

| IC50 | SMILES |
| --- | --- |
| 1700 nM | Cc1nc(NC(=O)C[C@H](CC#N)NC(=O)c2cccc(-c3cnn(C)c3)n2)sc1C(=O)OC(C)C [Example 213, Propan-2-yl 2-[(3S)-4-cyano-3-{[6-(1-methyl-1 H-pyrazol-4-yl)pyridin-2-yl]formamido}butanamido]-4-methyl-1,3-thiazole-5-carboxylate] |
| 2400 nM | Cc1nc(NC(=O)C[C@@H](CC#N)NC(=O)c2cccc(-c3cnn(C)c3)n2)sc1C(=O)OC(C)C [Example 214] |
| 84 nM | CCOC(=O)c1sc(NC(=O)CC(CC)NC(=O)c2cccc(-c3noc(C)n3)c2)nc1C (stereo not shown) [Example 215] |
| 1700 nM | COC(=O)c1sc(NC(=O)C[C@H](CC(=O)O)NC(=O)c2cccc(-c3noc(C)n3)c2)nc1C [Example 216, (3R)-4-{[5-(methoxycarbonyl)-4-methyl-1,3-thiazol-2-yl]carbamoyl}-3-{[3-(5-methyl-1,2,4-oxadiazol-3-yl)phenyl]formamido}butanoic acid] |
| 7300 nM | COC(=O)c1sc(N(C)C(=O)C[C@@H](CC(=O)O)NC(=O)c2cccc(-c3noc(C)n3)c2)nc1C [Example 217] |
| 41 nM | CCN(c1nc(C)c(C(=O)OC(C)(C)C)s1)C(=O)[C@H]1C[C@@H](Nc2nccc3ccc(-c4noc(C)n4)cc23)C1 [Example 218, tert-Butyl 2-((1s,3s)-N-ethyl-3-((7-(5-methyl-1,2,4-oxadiazol-3-yl)isoquinolin-1-yl)amino)cyclobutanecarboxamido)-4-methylthiazole-5-carboxylate formate] |
| 89 nM | CCOC(=O)c1sc(N(C)C(=O)CCNC(=O)c2cccc(-c3noc(C)n3)c2)nc1C [Example 219, Ethyl 4-methyl-2-(N-methyl-3-(3-(5-methyl-1,2,4-oxadiazol-3-yl)benzamido)propanamido)thiazole-5-carboxylate] |
| 122 nM | CCCOC(=O)c1sc(C(=O)N[C@H]2C[C@@H](Nc3nccc4ccc(-c5noc(C)n5)cc34)C2)nc1C [Example 220, Propyl 4-methyl-2-(((1s,3s)-3-((7-(5-methyl-1,2,4-oxadiazol-3-yl)isoquinolin-1-yl)amino)cyclobutyl)carbamoyl)thiazole-5-carboxylate] |
| 133 nM | Cc1nc(-c2ccc3ccnc(N[C@H]4C[C@@](O)(C(=O)Nc5nc(C)c(C(C)(C)C)s5)C4)c3c2)no1 [Example 221, (1 r,3r)-N-(5-(tert-butyl)-4-methylthiazol-2-yl)-1-hydroxy-3-((7-(5-methyl-1,2,4-oxadiazol-3-yl)isoquinolin-1-yl)amino)cyclobutane-1-carboxamide] |
| 10 nM | Cc1nc(-c2ccc3ccnc(N[C@H]4C[C@@](F)(C(=O)Nc5nc(C)c(C(=O)OC(C)(C)C)s5)C4)c3c2)no1 [Example 222, tert-butyl 2-((1 r,3r)-1-fluoro-3-((7-(5-methyl-1,2,4-oxadiazol-3-yl)isoquinolin-1-yl)amino)cyclobutane-1-carboxamido)-4-methylthiazole-5-carboxylate] |
| 219 nM | Cc1nc(-c2ccc3ccnc(N[C@H]4C[C@](F)(C(=O)Nc5nc(C)c(C(=O)OC(C)(C)C)s5)C4)c3c2)no1 [Example 223, tert-Butyl 2-((1s,3s)-1-fluoro-3-((7-(5-methyl-1,2,4-oxadiazol-3-yl)isoquinolin-1-yl)amino)cyclobutane-1-carboxamido)-4-methylthiazole-5-carboxylate] |
| 270 nM | Cc1nc(-c2ccc3ccnc(N[C@H]4C[C@@](C)(C(=O)Nc5nc(C)c(C(=O)OC(C)(C)C)s5)C4)c3c2)no1 [Example 224, tert-Butyl 4-methyl-2-((1s,3s)-1-methyl-3-((7-(5-methyl-1,2,4-oxadiazol-3-yl)isoquinolin-1-yl)amino)cyclobutane-1-carboxamido)thiazole-5-carboxylate] |
| 1660 nM | Cc1nc(-c2ccc3ccnc(N[C@@H]4CCN(C(=O)Nc5nc(C)c(C(=O)OC(C)(C)C)s5)C4)c3c2)no1 [Example 225, tert-Butyl 4-methyl-2-[[(3R)-3-[[7-(5-methyl-1,2,4-oxadiazol-3-yl)-1-isoquinolyl]amino]pyrrolidine-1-carbonyl]amino]thiazole-5-carboxylate] |
| 12 nM | Cc1nc(-c2ccc3ccnc(N[C@H]4CCN(C(=O)Nc5nc(C)c(C(=O)OC(C)(C)C)s5)C4)c3c2)no1 [Example 226, tert-Butyl 4-methyl-2-[[(3S)-3-[[7-(5-methyl-1,2,4-oxadiazol-3-yl)-1-isoquinolyl]amino]pyrrolidine-1-carbonyl]amino]thiazole-5-carboxylate] |
| 88 nM | Cc1nc(-c2ccc3ccnc(N[C@H]4CCN(C(=O)N(C)c5nc(C)c(C(=O)OC(C)(C)C)s5)C4)c3c2)no1 [Example 227, tert-Butyl 4-methyl-2-[methyl-[(3S)-3-[[7-(5-methyl-1,2,4-oxadiazol-3-yl)-1-isoquinolyl]amino]pyrrolidine-1-carbonyl]amino]thiazole-5-carboxylate] |
| 86 nM | Cc1nc(-c2cccc(C(=O)NC3CN(C(=O)Nc4nc(C)c(C(=O)OC(C)(C)C)s4)C3)c2)no1 [Example 228, tert-Butyl 4-methyl-2-[[3-[[3-(5-methyl-1,2,4-oxadiazol-3-yl)benzoyl]amino]azetidine-1-carbonyl]amino]thiazole-5-carboxylate] |
| 52 nM | Cc1nc(-c2cccc(C(=O)NC3CN(C(=O)N(C)c4nc(C)c(C(=O)OC(C)(C)C)s4)C3)c2)no1 [Example 229, tert-Butyl 4-methyl-2-[methyl-[3-[[3-(5-methyl-1,2,4-oxadiazol-3-yl)benzoyl]amino]azetidine-1-carbonyl]amino]thiazole-5-carboxylate] |
